Results as given in ChEMBL document CHEMBL1154825, “Schweinfurthins I and J from Macaranga schweinfurthii” (2010).

What was measured:
Assay type in all cases: functional
NCI-H522 = assay: Growth inhibition of human NCI-H522 cells
HL-60(TB) = assay: Growth inhibition of human HL-60(TB) cells
MCF7 = assay: Growth inhibition of human MCF7 cells
NCI-H460 = assay: Growth inhibition of human NCI-H460 cells
OVCAR-3 = assay: Growth inhibition of human OVCAR-3 cells
Malme-3M = assay: Growth inhibition of human MALME-3M cells
SK-MEL-2 = assay: Growth inhibition of human SK-MEL-2 cells
RXF 393 = assay: Growth inhibition of human […] cells
SK-MEL-28 = assay: Growth inhibition of human SK-MEL-28 cells
RPMI-8226 = assay: Growth inhibition of human RPMI8226 cells
MDA-MB-435 = assay: Growth inhibition of human MDA-MB-435 cells
SNB-75 = assay: Growth inhibition of human SNB75 cells
OVCAR-8 = assay: Growth inhibition of human OVCAR8 cells
K562 = assay: Growth inhibition of human K562 cells
U-251 = assay: Growth inhibition of human U251 cells
UACC-62 = assay: Growth inhibition of human UACC62 cells
A549 = assay: Growth inhibition of human A549 cells
CAKI-1 = assay: Growth inhibition of human Caki1 cells
SK-OV-3 = assay: Growth inhibition of human SKOV3 cells
HOP-92 = assay: Growth inhibition of human HOP92 cells
HCT-15 = assay: Growth inhibition of human HCT15 cells
SK-MEL-5 = assay: Growth inhibition of human SK-MEL-5 cells
CCRF-CEM = assay: Growth inhibition of human CCRF-CEM cells
NCI-H322M = assay: Growth inhibition of human NCI-H322M cells
ACHN = assay: Growth inhibition of human ACHN cells
HCC 2998 = assay: Growth inhibition of human HCC2998 cells
IGROV-1 = assay: Growth inhibition of human IGROV1 cells
MDA-MB-231 = assay: Growth inhibition of human MDA-MB-231 cells
NCI-H226 = assay: Growth inhibition of human NCI-H226 cells
LOX IMVI = assay: Growth inhibition of human LOXIMVI cells
NCI-H23 = assay: Growth inhibition of human NCI-H23 cells
MDA-MB-468 = assay: Growth inhibition of human MDA-MB-468 cells
SN12C = assay: Growth inhibition of human SN12C cells
UO-31 = assay: Growth inhibition of human UO31 cells
HT-29 = assay: Growth inhibition of human HT-29 cells
HCT-116 = assay: Growth inhibition of human HCT116 cells
[1] = Growth inhibition of human NCI60 cells
HOP-62 = assay: Growth inhibition of human HOP62 cells
786-0 = assay: Growth inhibition of human 786-0 cells
UACC-257 = assay: Growth inhibition of human UACC257 cells
PC-3 = assay: Growth inhibition of human PC3 cells
SF-539 = assay: Growth inhibition of human SF539 cells
[2] = Growth inhibition of human Hs 578T cells
DU-145 = assay: Growth inhibition of human DU145 cells
[3] = read-out: pLC50 (the source's name) (converted)

SMILES: CC(C)=CCC/C(C)=C/Cc1cc(/C=C/c2cc(O)cc(O)c2)ccc1O [SCHWEINFURTHIN I]
- GI50 (NCI-H522): 11.2 µM
- LC50 (NCI-H522): 72.4 µM
- TGI (NCI-H522; read-out: pTGI (converted)): 28.2 µM
- GI50 (HL-60(TB)): 5.37 µM
- CC50 (HL-60(TB); [3]): 77.6 µM
- TGI (HL-60(TB); read-out: pTGI (converted)): 23.4 µM
- GI50 (MCF7): 10 µM
- LC50 (MCF7): 63.1 µM
- TGI (MCF7; read-out: pTGI (converted)): 25.1 µM
- GI50 (NCI-H460): 10.2 µM
- LC50 (NCI-H460): 85.1 µM
- TGI (NCI-H460; read-out: pTGI (converted)): 29.5 µM
- GI50 (OVCAR-3): 12.3 µM
- LC50 (concentration killing 50% of cells) (OVCAR-3): 50.1 µM
- TGI (OVCAR-3; read-out: pTGI (converted)): 25.1 µM
- GI50 (Malme-3M): 11.7 µM
- LC50 (Malme-3M): 63.1 µM
- TGI (Malme-3M; read-out: pTGI (converted)): 26.9 µM
- GI50 (SK-MEL-2): 11.5 µM
- LC50 (SK-MEL-2): 56.2 µM
- TGI (SK-MEL-2; read-out: pTGI (converted)): 25.7 µM
- GI50 (RXF 393): 1.78 µM
- CC50 (RXF 393; [3]): 7.76 µM
- TGI (RXF 393; read-out: pTGI (converted)): 3.72 µM
- GI50 (SK-MEL-28): 10.7 µM
- CC50 (SK-MEL-28; [3]): 50.1 µM
- TGI (SK-MEL-28; read-out: pTGI (converted)): 23.4 µM
- GI50 (RPMI-8226): 3.98 µM
- LC50 (RPMI-8226): 91.2 µM
- TGI (RPMI-8226; read-out: pTGI (converted)): 19.1 µM
- GI50 (MDA-MB-435): 7.24 µM
- CC50 (MDA-MB-435; [3]): 53.7 µM
- TGI (MDA-MB-435; read-out: pTGI (converted)): 21.9 µM
- GI50 (SNB-75): 11.2 µM
- LC50 (SNB-75): 52.5 µM
- TGI (SNB-75; read-out: pTGI (converted)): 24.5 µM
- GI50 (OVCAR-8): 13.8 µM
- LC50 (OVCAR-8): 70.8 µM
- TGI (OVCAR-8; read-out: pTGI (converted)): 30.9 µM
- GI50 (K562): 5.01 µM
- LC50 (K562): 72.4 µM
- TGI (K562; read-out: pTGI (converted)): 22.4 µM
- GI50 (U-251): 5.5 µM
- LC50 (U-251): 51.3 µM
- TGI (U-251; read-out: pTGI (converted)): 20 µM
- GI50 (UACC-62): 10.7 µM
- CC50 (UACC-62; [3]): 51.3 µM
- TGI (UACC-62; read-out: pTGI (converted)): 23.4 µM
- GI50 (A549): 10.5 µM
- LC50 (A549): 66.1 µM
- TGI (A549; read-out: pTGI (converted)): 26.3 µM
- GI50 (CAKI-1): 5.62 µM
- CC50 (CAKI-1; [3]): 43.7 µM
- TGI (CAKI-1; read-out: pTGI (converted)): 18.6 µM
- GI50 (SK-OV-3): 15.5 µM
- CC50 (SK-OV-3; [3]): 55 µM
- TGI (SK-OV-3; read-out: pTGI (converted)): 29.5 µM
- GI50 (HOP-92): 12.9 µM
- CC50 (HOP-92; [3]): 77.6 µM
- TGI (HOP-92; read-out: pTGI (converted)): 31.6 µM
- GI50 (HCT-15): 15.8 µM
- LC50 (50% lethal concentration) (HCT-15): > 100 µM
- TGI (HCT-15; read-out: pTGI (converted)): 58.9 µM
- GI50 (SK-MEL-5): 4.68 µM
- CC50 (SK-MEL-5; [3]): 43.7 µM
- TGI (SK-MEL-5; read-out: pTGI (converted)): 17.4 µM
- GI50 (CCRF-CEM): 5.37 µM
- LC50 (CCRF-CEM): 95.5 µM
- TGI (CCRF-CEM; read-out: pTGI (converted)): 25.7 µM
- GI50 (NCI-H322M): 11.5 µM
- LC50 (NCI-H322M): 51.3 µM
- TGI (NCI-H322M; read-out: pTGI (converted)): 24.5 µM
- GI50 (ACHN): 10 µM
- CC50 (ACHN; [3]): 49 µM
- TGI (ACHN; read-out: pTGI (converted)): 22.4 µM
- GI50 (HCC 2998): 15.5 µM
- LC50 (HCC 2998): 58.9 µM
- TGI (HCC 2998; read-out: pTGI (converted)): 30.2 µM
- GI50 (IGROV-1): 11.7 µM
- CC50 (IGROV-1; [3]): 55 µM
- TGI (IGROV-1; read-out: pTGI (converted)): 25.1 µM
- GI50 (MDA-MB-231): 10.7 µM
- LC50 (MDA-MB-231): 63.1 µM
- TGI (MDA-MB-231; read-out: pTGI (converted)): 26.3 µM
- GI50 (NCI-H226): 16.6 µM
- LC50 (NCI-H226): 74.1 µM
- TGI (NCI-H226; read-out: pTGI (converted)): 35.5 µM
- GI50 (LOX IMVI): 7.24 µM
- CC50 (LOX IMVI; [3]): 50.1 µM
- TGI (LOX IMVI; read-out: pTGI (converted)): 20.9 µM
- GI50 (NCI-H23): 11.7 µM
- LC50 (NCI-H23): 61.7 µM
- TGI (NCI-H23; read-out: pTGI (converted)): 26.9 µM
- GI50 (MDA-MB-468): 9.12 µM
- CC50 (MDA-MB-468; [3]): 53.7 µM
- TGI (MDA-MB-468; read-out: pTGI (converted)): 22.9 µM
- GI50 (SN12C): 13.5 µM
- CC50 (SN12C; [3]): 61.7 µM
- TGI (SN12C; read-out: pTGI (converted)): 28.8 µM
- GI50 (UO-31): 6.76 µM
- LC50 (concentration killing 50% of cells) (UO-31): 47.9 µM
- TGI (UO-31; read-out: pTGI (converted)): 20.9 µM
- GI50 (HT-29): 12.6 µM
- LC50 (HT-29): 69.2 µM
- TGI (HT-29; read-out: pTGI (converted)): 29.5 µM
- GI50 (HCT-116): 11 µM
- CC50 (HCT-116; [3]): 50.1 µM
- TGI (HCT-116; read-out: pTGI (converted)): 23.4 µM
- GI50 [1]: 10 µM
- GI50 (HOP-62): 14.5 µM
- LC50 (HOP-62): 53.7 µM
- TGI (HOP-62; read-out: pTGI (converted)): 27.5 µM
- GI50 (786-0): 3.55 µM
- CC50 (786-0; [3]): 37.2 µM
- TGI (786-0; read-out: pTGI (converted)): 12 µM
- GI50 (UACC-257): 14.5 µM
- LC50 (UACC-257): 60.3 µM
- TGI (UACC-257; read-out: pTGI (converted)): 29.5 µM
- GI50 (PC-3): 6.61 µM
- LC50 (PC-3): 49 µM
- TGI (PC-3; read-out: pTGI (converted)): 20.4 µM
- GI50 (SF-539): 5.13 µM
- LC50 (SF-539): 47.9 µM
- TGI (SF-539; read-out: pTGI (converted)): 17.8 µM
- GI50 [2]: 4.07 µM
- LC50 [2]: > 100 µM
- TGI ([2]; read-out: pTGI (converted)): 26.3 µM
- GI50 (DU-145): 12.9 µM
- LC50 (DU-145): 51.3 µM
- TGI (DU-145; read-out: pTGI (converted)): 25.7 µM
